Legend:
[1] = system: CaMKIIα binding to GST-GluN2B-c
Procedure: In a series of exemplary methods, an in vitro kinase assay was used where purified CaMKIIα is incubated at 30° C. with GST-GluA1 alongside ATP. CaMKIIα normally phosphorylates S831 on the GluA1 subunit and this phosphorylation can be measured as a readout of CaMKIIα enzymatic activity (see e.g., FIG. 8B). […] In another exemplary method, binding of purified CaMKIIα to immobilized GST-GluN2B-c was induced by Ca^2+/CaM in the presence of a vehicle (none), 4 mM ADP or with […] AS105. […] At the same time, two exemplary methods were performed to observe ionomycin or chemical LTP (cLTP) induced co-localization of CaMKII and GluN2B either in HEK293 cells co-expressing GFP-CaMKII and mCherry-2BC or dissociated rat hippocampal cultures expressing GFP-CaMKII and mCh-PSD95 intrabody. HEK293 cells, incubating with vehicle or 10 μM AS105, were subjected to ionomycin. Hippocampal cultures, also incubating with either vehicle or 10 μM AS105, were treated with a chemical LTP (cLTP) stimulus (e.g., 100 μM glutamate, 10 μM glycine for 45 seconds). Confocal microscopy images were taken before and after each stimulus.
One possible mechanism by which AS283 could enhance GluN2B binding more than ATP is by suppressing CaMKII-mediated phosphorylation of GluN2B at S1303, as this phosphorylation within the CaMKII binding site on GluN2B reduces CaMKII binding.
Bound CaMKII was measured via immunoblot.

[2] = system: pT286 CaMKII; experiment: CaMKII T286 phosphorylation in hippocampal cultures after chemical LTP stimulation; assay type: cell-based
Procedure: In this Example, other possibilities of AS283 action were tested. If AS283 blocks pT286 but not LTP because it also circumvents the need of pT286 for LTP, then AS283 should not only fail to block LTP in WT mice (as illustrated in FIGS. 3A-3B) but should also restore the capacity for LTP induction in T286A mutant mice. […] Specifically, in an exemplary method, the addition of AS283 (10 μM) enabled LTP in slices from the T286A mutant mice (FIGS. 3C-3D).
Immunoblot analysis. Protein concentration was determined using the Pierce BCA protein assay (Thermo-Fisher). Before undergoing SDS-PAGE, samples were boiled in Laemmli sample buffer for 5 min at 95° C. Proteins were separated in a resolving phase polymerized from 10% acrylamide, then transferred to a polyvinylidene difluoride membrane at 24 V for 1-2 h at 4° C. […] Blots were developed using chemiluminescence (Super Signal West Femto, Thermo-Fisher) imaged using the Chemi-Imager 4400 system (Alpha-Innotech), or imaged directly by fluorescence (Cytiva CyDye 700 goat anti-mouse and CyDye 800 goat anti-rabbit secondary antibodies.) using an OdysseyFc imaging instrument. All immunoblots were analyzed by densitometry (ImageJ). […]

[3] = molecular target: CaMKII F89G (Homo sapiens, UniProt Q9UQM7, F89G); experiment: In vitro kinase assay with CaMKII F89G mutant; assay type: biochemical; details: 10 μM NM-PP1
Procedure: This conclusion also predicts that the LTP stimulus-induced movement of CaMKII to excitatory synapses should be (i) impaired in the CaMKII F89G mutant; but (ii) normalized by pharmacogenetic rescue with NM-PP1. Indeed, both predictions were observed experimentally (FIGS. 4D-4E).
In vitro phosphorylation assays. CaMKII-mediated phosphorylation of GluA1 S831 was measured by in vitro kinase reaction with purified GST-GluA1 c-terminal tail. Reactions contained 40 nM CaMKII (or water for negative controls), 1 μM GST-GluA1, 50 mM PIPES pH 7.1, 2 mM CaCl2), 10 mM MgCl2, 1 μM calmodulin, 1-4 mM ATP, and 1 PM of okadaic acid. Reactions were done at 30° C. for 20 s; reactions were stopped by adding SDS-loading buffer and incubation in a boiling water bath for 5 min. GST, phospho-S831, CaMKII, phospho-T286, or phospho-S1303 were detected in the samples by immunoblot analysis.

NCCNc1cccc(-c2ccnc3[nH]c4ccccc4c23)c1 [AS283]
CaMKII binding to immobilized GluN2B compared to a control without nucleotide or inhibitor ([1]; 10 μM inhibitor, EGTA wash, immunoblot): increased CaMKII binding | CaMKII binding to GluN2B in the presence of ADP ([1]; 1 mM ADP, AS283 10 μM): did not inhibit CaMKII binding to GluN2B | Ca2+/CaM-induced CaMKII binding to immobilized WT GluN2B when ATP was substituted ([1]; AS283 versus 1 mM ATP): significantly enhanced | enhancing effect on CaMKII binding to GluN2B S1303A mutant compared with ATP ([1]; phosphorylation-incompetent GluN2B S1303A): indistinguishable | increase in pT286 levels after chemical LTP stimulation [2]: specifically blocked increase in pT286 levels

CC(C)(C)n1nc(Cc2cccc3ccccc23)c2c(N)ncnc21 [NM-PP1]
residual enzymatic activity of CaMKII F89G [3]: still further reduced

From patent US20260263429A1, “INHIBITORS OF CA 2+/CALMODULIN-DEPENDENT PROTEIN KINASE II (CAMKII) THAT DO NOT INHIBIT LONG-TERM POTENTIATION (LTP) INDUCTION AND THERAPEUTIC USES THEREOF” (The Regents of the University of Colorado, A Body Corporate, priority 2023, published 2026)
